Values joined by “and” are separate entries in the source; they are usually repeats but may differ in a detail not shown here. Equal values may be shown once.
Columns and labels:
[1] = UV-vis absorption and emission measurements in aqueous buffer; type: physicochemical
Protocol: UV-vis absorption and emission measurements. FCP-1 stock solution in DMSO (5 mM) was prepared, aliquoted and stored at […]. For each spectroscopic measurement, a fresh aliquot was diluted to 500 μM by DMSO and further diluted with PBS containing 2 mM GSH/PEG-400 mixture (3:2, v/v) to prepare the sensing solution with 5 μM of FCP-1. The sensing solution was pre-incubated in a water bath at 37° C., and then [Cu(CH3CN)](PF6) in MeCN or other metal ions in H2O was added. The solution mixture was kept at 37° C. and taken out for UV-vis absorption or emission spectroscopic measurements in quartz cuvette at predetermined time intervals. Emission spectra were corrected using coumarin 153 as secondary emission standard (4). Photoluminescence quantum yield (PLQY) was determined using fluorescein in 0.1 M NaOH solution (0.95; λex=496 nm). FRET efficiency from the fluorescein moiety to rhodamine moiety of FCP-1 was estimated by [1−(PLQY of FCP-1/PLQY of FL-TPA)].
FCP-1 in PBS buffer containing glutathione (2 mM) and PEG-400 (40%, v/v) was evaluated. […] The first two absorption maxima corresponded to the absorption of the fluorescein moiety, as similar absorption maxima at 460 and 489 nm were found in the absorption spectra of FL-TPA (FIG. 4), whereas the lowest energy absorption at 552 nm originated from the rhodamine moiety (FIG. 4). […] Together with the significant contribution of the lower-energy fluorescence from the excitation at 450-500 nm, which is in the region of FL-TPA absorption (FIG. 6), the data support the occurrence of FRET from the fluorescein donor to the rhodamine acceptor. Using FL-TPA as a reference FRET donor compound (FIG. 7) with assumption that quenching of donor fluorescence originated only from the FRET process, the FRET efficiency in the FCP-1 cassette is estimated to be 84%.

[2] = tested on: labile Cu(I) pools in HEK 293T cells; test: Ratiometric confocal fluorescence imaging of labile Cu(I) in HEK 293T cells; type: cell-based, Human; settings: CuCl2 25 μM, FL-TPA 5 μM, λex 488 nm (FIG. 15)
Protocol: (A) Confocal fluorescence microscopy images of HEK 293T cells pretreated with solvent vehicle control or varying concentrations of CuCl2 in complete medium for 18 h. The cells were then washed with PBS, incubated with FCP-1 (5 μM) in DPBS for 45 min and then imaged. (B) Average cellular ratiometric emission ratios, represented by Fgreen/Forange, as determined from imaging experiments in (A) performed in triplicate. (C) Confocal fluorescence microscopy images of HEK 293T cells pretreated with solvent vehicle control or BCS (100 μM) in complete medium for 18 h. The cells were then washed with PBS, incubated with FCP-1 (5 μM) in DPBS for 45 min and then imaged. (D) Average cellular ratiometric emission ratios of FCP-1, Fgreen/Forange, as determined from experiments in (C) performed in triplicate. […] (E) ICP-MS measurement to determine total cellular ^63Cu levels in HEK293T cells under copper supplementation and depletion relative to the control (with normalization of different cell numbers by total cellular ^31P level). Error bars denote standard derivation (SD; n=3). *p<0.05, **p<0.01, ***p<0.001, ****p<0.0001 and *****p<0.00001.
Cell culture. Following cell cultures were grown: Human embryonic kidney (HEK 293T) cells were maintained in Dulbecco's Modified Eagle Medium (DMEM) supplemented with 10 vol % fetal bovine serum (FBS), 1 vol % GlutaMax (Gibco) and 1 vol % non-essential amino acids (NEAA, Gibco). Ctrl1^+/+ and Ctr1^−/− MEF cells were maintained in DMEM with 10 vol % FBS, 1 vol % non-essential amino acids, 1 vol % sodium pyruvate and 0.1 vol % 2-mercaptoethanol or DMEM supplemented with 10 vol % FBS and 1× Penicillin-Streptomycin. Human cervical epithelial carcinoma (HeLa) was maintained in DMEM medium supplemented with 1 vol % GlutaMAX and 10 vol % FBS. […]
Confocal fluorescence microscopy imaging. For confocal fluorescence imaging experiments of HEK293T, MEF Ctr1^+/+ and Ctr1^−/− and HeLa cells, the cells were plated on 8-well Lab Tek borosilicate chambered coverglass slides (Nunc), and allowed to grow to ca. 60% confluency before performing the cell imaging experiments. […] For quantification, a threshold value was set as background and the average intensity of the whole image was measured by ImageJ. […]
Given the metal and oxidation state-selective and sensitive response of FCP-1 to Cu(I), this probe was examined for ratiometric fluorescence imaging of labile Cu(I) pools in living cells. […] The observed increases and decreases in labile Cu(I) levels upon copper supplementation (CuCl2) and copper depletion (BCS) treatments, respectively, as measured by FCP-1 imaging were supported by complementary ICP-MS measurements of total copper levels showing expected increases and decreases in the total copper pool (FIG. 9, panel C).

[3] = tested on: labile Cu(I) in Ctr1^+/+ MEFs; test: Confocal fluorescence imaging of labile Cu(I) in Ctr1+/+ MEFs; type: cell-based, mouse; settings: FL-TPA 5 μM, 45 min, λex 488 nm
Protocol: (A) Confocal fluorescence microscopy images of Ctr1^+/+ MEFs and Ctr1^−/− MEFs treated with solvent control, CuCl2 (100 or 300 μM) or BCS (500 μM) in complete medium for 8 h, washed with complete medium and PBS, incubated with FCP-1 (5 μM) in DPBS for 45 min, and then imaged with λex=458 nm. (B) Average cellular ratiometric emission ratios of FCP-1, Fgreen/Forange, as determined from experiments performed in triplicate. (C) Total cellular ^63Cu levels were determined by ICP-MS experiments (with normalization of different cell numbers by total cellular ^31P level). (D) Confocal fluorescence microscopy images of Ctr1^+/+ MEFs and Ctr1^−/− MEFs incubated with FL-TPA (5 μM) in DPBS for 45 min. The cells were then imaged with λex=488 nm. (E) Average cellular fluorescence intensity of FL-TPA, FFL-TPA, determined from experiments performed in triplicate with λex=488 nm. Error bars denote SD (n=3). *p<0.05, **p<0.01 and ***p<0.001.
Cell culture. Following cell cultures were grown: Human embryonic kidney (HEK 293T) cells were maintained in Dulbecco's Modified Eagle Medium (DMEM) supplemented with 10 vol % fetal bovine serum (FBS), 1 vol % GlutaMax (Gibco) and 1 vol % non-essential amino acids (NEAA, Gibco). Ctrl1^+/+ and Ctr1^−/− MEF cells were maintained in DMEM with 10 vol % FBS, 1 vol % non-essential amino acids, 1 vol % sodium pyruvate and 0.1 vol % 2-mercaptoethanol or DMEM supplemented with 10 vol % FBS and 1× Penicillin-Streptomycin. Human cervical epithelial carcinoma (HeLa) was maintained in DMEM medium supplemented with 1 vol % GlutaMAX and 10 vol % FBS. All cells were incubated in 5% CO2 humidified air and subcultured at 80% confluence.
Confocal fluorescence microscopy imaging. For confocal fluorescence imaging experiments of HEK293T, MEF Ctr1^+/+ and Ctr1^−/− and HeLa cells, the cells were plated on 8-well Lab Tek borosilicate chambered coverglass slides (Nunc), and allowed to grow to ca. 60% confluency before performing the cell imaging experiments. The confocal imaging was performed with a Zeiss laser scanning microscope 710 with 20× or 63× oil-immersion objective lens using Zen 2009 software (Carl Zeiss). FCP-1 was excited with 458 nm with an Ar laser, and the emissions were collected using a META detector between 465 and 541 nm (Fgreen), and between 559 and 710 nm (Forange). DRAQ-5 was excited with a 633 nm He Ne laser, and its emission was collected using a META detector between 661 and 759 nm. Image analysis was performed using ImageJ, with ratiometric images generated by the Ratio Plus plugin of ImageJ. For quantification, a threshold value was set as background and the average intensity of the whole image was measured by ImageJ. All experiments were performed in triplicate, and statistical analyses were performed with a two-tailed Student's t-test (MS excel).
Having established that FCP-1 is sensitive to endogenous pools of labile Cu(I) under basal conditions and can respond to changes in labile Cu(I) pools upon pharmacological copper supplementation and/or depletion, the application of FCP-1 to visualize alterations in endogenous labile Cu(I) pools through genetic manipulation was explored. To this end, comparative FCP-1 imaging was performed in mouse embryonic fibroblast cells that are either Cu-replete (Ctr1^+/+ MEFs) or Cu-deficient (Ctr1^−/− MEFs) through knockout of the high-affinity copper transporter CTR1 (64-66).
Complementary ICP-MS measurements confirm that total copper levels in Ctr1^−/− MEFs are lower than Ctr1^+/+ MEFs (FIG. 12C). […]

| absorption maxima ([1]; PBS buffer containing glutathione (2 mM) and PEG-400 (40%, v/v)) | absorption at 458 nm ([1]; 5 μM in PBS, 2 mM GSH, 40 vol % PEG-400) | Molecule | detection of changes in labile copper with exogenous copper addition [2] | ability to distinguish basal labile Cu(I) levels in Ctr1+/+ and Ctr1−/− MEFs [3] |
| --- | --- | --- | --- | --- |
| 460 nm and 489 nm | – | COC(=O)c1ccccc1-c1c2ccc(=O)cc-2oc2cc(OCc3cccc(CN(Cc4ccccn4)Cc4ccccn4)n3)ccc12 [FL-TPA] | able to detect changes in labile copper | unable to distinguish differences |
| – | weak absorption | N-[9-(2-carboxyphenyl)-6-(1-piperazinyl)-3H-xanthen-3-ylidene]-N-ethyl-ethanaminium [Pz-rhodamine, reference compound] | – | – |
